# From ChEMBL document CHEMBL2331515, “Design, synthesis, and pharmacological characterization of novel endomorphin-1 analogues as extremely potent μ-opioid agonists” (J Med Chem, 2013)
# Active and inactive are the calls of the source. No cut-off for these calls is given here.
# Assays:
# [1] = test system: Mus musculus; assay: Antinociceptive activity in Kunming mouse assessed as tail withdrawal latency at 2 mg/kg, iv by hot water tail-flick test in presence of naloxone methiodide; type: functional, organism-based; design: dose 2 mg/kg
# [2] = test system: Mus musculus; assay: Antinociceptive activity in Kunming mouse assessed as tail withdrawal latency at 2 mg/kg, iv by hot water tail-flick test in presence of naloxone; type: functional, organism-based; design: dose 2 mg/kg
# [3] = test system: Mus musculus; assay: Antinociceptive activity in Kunming mouse assessed as tail withdrawal latency at 2 mg/kg, iv after 15 to 20 mins by hot water tail-flick test relative to control; type: functional, organism-based; design: dose 2 mg/kg
# [4] = test system: Mus musculus; assay: Antinociceptive activity in icv dosed Kunming mouse assessed as tail withdrawal latency by hot water tail-flick test; type: functional; conditions: for ED50: central
# [5] = test system: Mus musculus; assay: Antinociceptive activity in icv dosed Kunming mouse assessed as tail withdrawal latency by hot water tail-flick test in presence of naloxone; type: functional, organism-based
# [6] = test system: Mus musculus; assay: Antinociceptive activity in Kunming mouse assessed as tail withdrawal latency at 0.67 to 20 nmol/kg, icv by hot water tail-flick test; type: functional, organism-based; conditions: TDE = time-dependent effect
# [7] = Half life in mouse brain homogenate by RP-HPLC analysis; type: ADME, tissue-based
# [8] = biological target: T1, Mu-type opioid receptor (Homo sapiens, UniProt P35372); assay: Agonist activity at FLAG-tagged mu-type opioid receptor (unknown origin) expressed in HEK293 cells assessed as stimulation of ERK1/2 phosphorylation at 1 uM after 2 mins by Western blotting analysis; type: cell-based
# [9] = biological target: T1, Mu-type opioid receptor; assay: Agonist activity at FLAG-tagged mu-type opioid receptor (unknown origin) expressed in HEK293 cells assessed as stimulation of ERK1/2 phosphorylation at 1 uM after 10 mins by Western blotting analysis; type: cell-based; conditions: TDE = time-dependent effect
# [10] = biological target: T2, Delta-type opioid receptor (Homo sapiens, UniProt P41143); assay: Agonist activity at Myc-tagged delta-type opioid receptor (unknown origin) expressed in HEK293 cells assessed as inhibition of forskolin-stimulated cAMP accumulation after 30 mins by liquid scintillation counting analysis relative to DAMGO; type: functional, cell-based
# [11] = biological target: T2, Delta-type opioid receptor; assay: Agonist activity at Myc-tagged delta-type opioid receptor (unknown origin) expressed in HEK293 cells assessed as inhibition of forskolin-stimulated cAMP accumulation after 30 mins by liquid scintillation counting analysis; type: functional, cell-based
# [12] = biological target: T1, Mu-type opioid receptor; assay: Agonist activity at FLAG-tagged mu-type opioid receptor (unknown origin) expressed in HEK293 cells assessed as inhibition of forskolin-stimulated cAMP accumulation after 30 mins by liquid scintillation counting analysis relative to DAMGO; type: functional, cell-based
# [13] = biological target: T1, Mu-type opioid receptor; assay: Agonist activity at FLAG-tagged mu-type opioid receptor (unknown origin) expressed in HEK293 cells assessed as inhibition of forskolin-stimulated cAMP accumulation after 30 mins by liquid scintillation counting analysis; type: functional, cell-based
# [14] = biological target: Mu-type opioid receptor (Mus musculus) (UniProt P42866); assay: Agonist activity at mu-type opioid receptor in Kunming mouse vas deferens assessed as inhibition of electrically evoked muscle contraction in presence of naltrindole
# [15] = biological target: Mu-type opioid receptor (Mus musculus, UniProt P42866); assay: Agonist activity at mu-type opioid receptor in Kunming mouse vas deferens assessed as inhibition of electrically evoked muscle contraction
# [16] = biological target: Mu-type opioid receptor (Cavia porcellus, UniProt P97266); assay: Agonist activity at mu-type opioid receptor in guinea pig ileum assessed as inhibition of electrically evoked muscle contraction; type: tissue-based
# [17] = Selectivity ratio of Ki for kappa-type opioid receptor (unknown origin) to Ki for FLAG-tagged mu-type opioid receptor (unknown origin); conditions: Homo sapiens
# [18] = species on record: Homo sapiens; assay: Selectivity ratio of Ki for Myc-tagged delta-type opioid receptor (unknown origin) to Ki for FLAG-tagged mu-type opioid receptor (unknown origin)
# [19] = biological target: Kappa-type opioid receptor (Homo sapiens, UniProt P41145); assay: Displacement of [3H]U69,593 from kappa-type opioid receptor (unknown origin) expressed in HEK293 cells after 60 mins by liquid scintillation counting analysis; type: cell-based
# [20] = biological target: T2, Delta-type opioid receptor; assay: Displacement of [3H]DPDPE from Myc-tagged delta-type opioid receptor (unknown origin) expressed in HEK293 cells after 60 mins by liquid scintillation counting analysis; type: cell-based
# [21] = biological target: T1, Mu-type opioid receptor; assay: Displacement of [3H]DAMGO from FLAG-tagged mu-type opioid receptor (unknown origin) expressed in HEK293 cells after 60 mins by liquid scintillation counting analysis; type: cell-based
# Chain of Mu-type opioid receptor (Cavia porcellus, UniProt P97266) (P97266 whole entry): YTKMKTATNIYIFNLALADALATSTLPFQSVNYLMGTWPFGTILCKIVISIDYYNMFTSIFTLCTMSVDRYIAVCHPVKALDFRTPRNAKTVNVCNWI
# T1 sequence (P35372 whole entry): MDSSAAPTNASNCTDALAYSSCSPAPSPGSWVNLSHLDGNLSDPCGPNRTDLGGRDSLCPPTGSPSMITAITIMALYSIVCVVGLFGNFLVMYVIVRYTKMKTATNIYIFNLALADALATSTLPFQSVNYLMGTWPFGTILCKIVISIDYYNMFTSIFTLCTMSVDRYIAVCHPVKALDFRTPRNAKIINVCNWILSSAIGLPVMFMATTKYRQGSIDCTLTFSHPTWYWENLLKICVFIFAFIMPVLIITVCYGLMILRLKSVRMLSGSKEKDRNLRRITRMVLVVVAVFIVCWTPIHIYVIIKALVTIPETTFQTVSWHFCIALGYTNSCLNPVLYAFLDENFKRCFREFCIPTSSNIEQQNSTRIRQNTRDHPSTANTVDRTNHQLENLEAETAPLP
# Chain of Mu-type opioid receptor (Mus musculus) (P42866 whole entry): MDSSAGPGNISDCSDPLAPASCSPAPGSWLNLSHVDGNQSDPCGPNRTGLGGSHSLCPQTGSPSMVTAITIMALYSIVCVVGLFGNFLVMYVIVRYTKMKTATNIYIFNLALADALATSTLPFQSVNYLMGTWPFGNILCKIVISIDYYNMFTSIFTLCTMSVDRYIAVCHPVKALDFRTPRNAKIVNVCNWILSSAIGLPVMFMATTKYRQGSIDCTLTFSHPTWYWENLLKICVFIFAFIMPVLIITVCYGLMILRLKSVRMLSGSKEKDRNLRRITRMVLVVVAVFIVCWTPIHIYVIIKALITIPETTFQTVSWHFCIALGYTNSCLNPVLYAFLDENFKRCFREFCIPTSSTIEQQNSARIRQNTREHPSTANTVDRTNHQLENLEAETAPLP
# Chain of Mu-type opioid receptor (Mus musculus, UniProt P42866) (P42866 whole entry): as above
# T2 sequence (P41143 whole entry): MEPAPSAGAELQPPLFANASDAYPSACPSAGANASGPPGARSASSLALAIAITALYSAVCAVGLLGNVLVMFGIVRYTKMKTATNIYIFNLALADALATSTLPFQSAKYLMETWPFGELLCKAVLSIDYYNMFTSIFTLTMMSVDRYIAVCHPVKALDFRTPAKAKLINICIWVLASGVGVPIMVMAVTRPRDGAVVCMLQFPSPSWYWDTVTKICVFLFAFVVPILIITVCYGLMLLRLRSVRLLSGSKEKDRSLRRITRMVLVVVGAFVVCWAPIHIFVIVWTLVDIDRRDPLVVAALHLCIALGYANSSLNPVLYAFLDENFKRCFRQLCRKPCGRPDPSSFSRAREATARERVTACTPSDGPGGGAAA
# Chain of Kappa-type opioid receptor (P41145 whole entry): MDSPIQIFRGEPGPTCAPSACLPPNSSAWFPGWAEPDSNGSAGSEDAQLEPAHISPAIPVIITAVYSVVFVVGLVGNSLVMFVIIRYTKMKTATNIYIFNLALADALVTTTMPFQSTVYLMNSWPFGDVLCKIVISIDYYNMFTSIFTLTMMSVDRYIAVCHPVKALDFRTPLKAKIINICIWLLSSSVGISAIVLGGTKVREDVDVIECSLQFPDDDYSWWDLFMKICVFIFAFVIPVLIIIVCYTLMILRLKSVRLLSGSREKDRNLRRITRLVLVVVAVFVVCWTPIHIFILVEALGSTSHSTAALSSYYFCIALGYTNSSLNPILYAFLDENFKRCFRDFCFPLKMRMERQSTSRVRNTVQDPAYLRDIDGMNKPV
SMILES,Activity [1],Activity [2],Activity [3],Activity [4],ED50 [4],Activity [5],Emax [10],Activity [11],EC50 [11],Emax [12],inhibition [13],inhibition [14],IC50 [15],IC50 [16],Ratio Ki [17],Ratio Ki [18],Ki [19],Ki [20],Ki [21],EC50 [13],other results
CN1CC[C@]23c4c5ccc(O)c4O[C@H]2[C@@H](O)C=C[C@H]3[C@H]1C5,Active,inactive,Active,–,–,–,–,–,–,–,–,–,–,–,–,–,–,–,–,–,–
C=C(C(N)=O)[C@@H](NC(=O)[C@H](Cc1c[nH]c2ccccc12)NC(=O)[C@@H]1CCN(C(=O)[C@@H](N)Cc2c(C)cc(O)cc2C)C1)c1ccco1,Active,inactive,Active,Dose-dependent effect,0.000532 µmol/kg,inactive,73.8%,Dose-dependent effect,89.3 nM,99.5%,Dose-dependent effect,Active,0.548 nM,0.167 nM,55100,5320,205 nM,19.8 nM,0.00372 nM,–,Activity [6]: tde; half-life [7]: > 10 h; Activity [8]: Active; Activity [9]: tde
C=C(C(=O)O)[C@@H](NC(=O)[C@H](Cc1c[nH]c2ccccc12)NC(=O)[C@@H]1CCCN1C(=O)[C@@H](N)Cc1c(C)cc(O)cc1C)c1ccco1,–,–,–,–,–,–,76.3%,Dose-dependent effect,48.9 nM,96.5%,Dose-dependent effect,Active,0.533 nM,0.767 nM,4940,548,200 nM,22.2 nM,0.0405 nM,0.000516 nM,–
C=C(C(N)=O)[C@@H](NC(=O)[C@H](Cc1c[nH]c2ccccc12)NC(=O)[C@H]1CCN(C(=O)[C@@H](N)Cc2ccc(O)cc2)C1)c1ccco1,–,–,–,–,–,–,–,Dose-dependent effect,–,94.9%,Dose-dependent effect,Active,4.9 nM,8.12 nM,–,9170,–,6950 nM,0.758 nM,0.0933 nM,–
C=C(C(N)=O)[C@@H](NC(=O)[C@H](Cc1c[nH]c2ccccc12)NC(=O)[C@@H]1CCN(C(=O)[C@@H](N)Cc2c(C)cc(O)cc2C)C1)c1ccccc1,Active,inactive,Active,Dose-dependent effect,0.000822 µmol/kg,inactive,72.1%,Dose-dependent effect,47.9 nM,98.9%,Dose-dependent effect,Active,0.406 nM,0.226 nM,17600,2770,174 nM,27.3 nM,0.00986 nM,–,Activity [6]: tde; half-life [7]: > 10 h; Activity [8]: Active; Activity [9]: tde
C=C(C(=O)O)[C@@H](NC(=O)[C@H](Cc1c[nH]c2ccccc12)NC(=O)[C@@H]1CCCN1C(=O)[C@@H](N)Cc1c(C)cc(O)cc1C)c1ccccc1,–,–,–,–,–,–,77.5%,Dose-dependent effect,51.6 nM,97.2%,Dose-dependent effect,Active,0.556 nM,0.467 nM,5960,795,192 nM,25.6 nM,0.0322 nM,0.00013 nM,–
